What was measured:
Type in all cases: cell-based
[1] = tested on: Respiratory syncytial virus recombinant with luciferase (RSV-Luc5) in HEp-2 cells; experiment: HEp-2 RSV-Luc5 384-well assay (EC50 RSVFLUC Hep2-384, Example R); conditions: human respiratory syncytial virus, HEp-2, 72 h, read-out: RSV Hep-2 FLuc EC50 (nM) (per Ex. R)
Source text: HEp-2 cell line was purchased from ATCC (Manassas, VA Cat #CCL-23) and maintained in Dulbecco's […] (DMEM) (Corning, New York, NY, Cat #15-018CM) supplemented with 10% fetal bovine serum (FBS) (Hyclone, Logan, UT, Cat #SH30071-03) and 1× Penicillin-Streptornycin-L-Glutamine (Corning, New York, NY, Cat #30-009-CI). Cells were passaged 2 times per week to maintain sub-confluent densities and were used for experiments at passage 5-20. Respiratory syncytial virus recombinant with luciferase (RSV-Luc5) direct pelleted virus (≥1×107 TCID50/ml) was purchased from Microbiologics (Saint Cloud, MN). Viral replication was determined in HEp-2 cells in the following manner.
Compounds are prepared in 384-well polypropylene plates (Greiner, Monroe, NC, Cat #784201) with 8 compounds per plate in grouped replicates of 4 at 10 serially diluted concentrations (1:3).
HEp-2 cells were suspended in DMEM (supplemented with 10% FBS and 1×Penicillin-Streptonycin-L-Glutimine) and 60 μL of 4,000 cells per well were seeded into 384-well plates (Greiner, Monroe, NC, Cat #781080) using Biotek MultiFlo dispenser. After overnight incubation at 37° C. and 5% CO2, 0.4 uL of three-fold serial dilutions of compound was added to each well using a Biomek FX pipette station. RSV-Luc5 viruses were diluted in DMEM (supplemented with 10% FBS and 1× Penicillin-Streptonycin-L-Glutainie) at an MOI=0.5. Virus suspension was added to each 384-well compound plate at 20 uL per well using a Biotek MultiFlo dispenser. The assay plates were incubated for 3 days at 37° C. and 5% CO2. At the end of incubation, One-Glo reagent (Promega, Madison, WI, Cat #E6120) was prepared. The assay plate and the reagent were equilibrated to room temperature for 30 minutes. 50 uL per well of medium was removed from assay plate and 40 uL per well of One-Glo reagent was added to each plate by Biomek FX. The plates were sat at room temp for 15 minutes. Viral replication was then assessed by measuring luminescence signal using and Envision plate reader. Remdesivir was used as positive control and DMSO was used as negative control. Values were normalized to the positive and negative controls (as 0% and 100% replication, respectively) and data was fitted using non-linear regression analysis by Gilead's dose response tool. The EC50 value for each compound was then determined as the concentration reducing the viral replication by 50%.

[2] = tested on: Respiratory syncytial virus recombinant with luciferase (RSV-Luc5) in NHBE cells; experiment: NHBE RSV-Luc5 384-well assay (EC50 RSVFLUC NHBE-384, Example U); conditions: human respiratory syncytial virus, 72 h, read-out: RSV FLuc NHBE 384 EC50 (v2) (nM) (per Ex. U)
How it was run: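 Passage-2 NHBE cells (5,000/well) on pre-spotted compounds, 10-point 1:3 series, infected with RSV-Luc5 at MOI 1 and incubated 3 days at 37° C. Replication read by One-Glo luminescence, normalized to remdesivir (0%) and DMSO (100%); EC50 = concentration reducing replication by 50%, by non-linear regression.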

[3] = RSV NHBE CC50 384 V2 (per Ex. U); conditions: human
[4] = in vitro; conditions: human
Protocol: H1-HeLa cell viability was measured using the CellTiter-Glo® Luminescent Cell Viability Assay kit (Promega, Cat #G7573) according to the manufacturer's protocol. H1-HeLa cells were maintained in Dulbecco's Modified Eagle's Medium with high glucose (Gibco, Cat #: 11995073) supplemented with 10% FBS (HyClone, Cat #: SH303396.03), 100 units/mL penicillin and 100 µg/mL streptomycin (Gibco, Cat #: 15140122). One day before compound treatment, H1-HeLa cells were seeded at […] into 96-well plates (Corning, Cat #3904) in Opti-MEM (Gibco, Cat #: 31985070) supplemented with 2% FBS, and were incubated at 37° C. in a 100% humid atmosphere containing 5% (v/v) CO2. After overnight incubation, the cells were treated with three-fold serial dilutions of the compound. At 96 hours post treatment, CellTiter-Glo reagents were added into each well and luminescence signals were recorded by an EnVision plate reader. The relative cell viability was calculated by normalizing the absorbance of the compound-treated groups to that of the DMSO-treated groups (set as 100% viability) and 10 μM puromycin treated groups (set as 0% viability). The CC50 (compound concentration for reducing 50% of cell viability) was calculated using a nonlinear regression model (four parameters).

Compound	EC50 [1]	EC50 [2]	CC50 at 3 days [3]	CC50 at 96 h [4]
CCCCCCCCCCCCCCCCCCOC[C@H](COP(=O)(O)OC[C@@]1(C#N)O[C@@H](c2ccc3c(N)ncnn23)[C@H](O)[C@@H]1O)OCc1ccc(C#N)nc1 [Compound 19, ((2R,3S,4R,5S)-5-(4-aminopyrrolo[2,1-f][1,2,4]triazin-7-yl)-2-cyano-3,4-dihydroxytetrahydrofuran-2-yl)methyl ((R)-2-((6-cyanopyridin-3-yl)methoxy)-3-(octadecyloxy)propyl) hydrogen phosphate]	48 nM	–	–	–
CCCCCCCCCCCCCCCCCCOC[C@H](COP(=O)(O)OC[C@@]1(C#N)O[C@@H](c2ccc3c(N)ncnn23)[C@H](O)[C@@H]1O)Oc1cccc(C#N)n1 [Compound 21, ((2R,3S,4R,5S)-5-(4-aminopyrrolo[2,1-f][1,2,4]triazin-7-yl)-2-cyano-3,4-dihydroxytetrahydrofuran-2-yl)methyl ((R)-2-((6-cyanopyridin-2-yl)oxy)-3-(octadecyloxy)propyl) hydrogen phosphate]	136 nM	29 nM	3350 nM	–
CCCCCCCCCCCCCCCCCC[C@@H](COP(=O)(O)OC[C@@]1(C#N)O[C@@H](c2ccc3c(N)ncnn23)[C@H](O)[C@@H]1O)OCc1cc(F)cc(C#N)c1 [Compound 37, ((2R,3S,4R)-5-(4-aminopyrrolo[2,1-f][1,2,4]triazin-7-yl)-2-cyano-3,4-dihydroxytetrahydrofuran-2-yl)methyl ((S)-2-((3-cyano-5-fluorobenzyl)oxy)icosyl) hydrogen phosphate]	304 nM	82 nM	3110 nM	–
CCCCCCCCCCCCCCCCCCCC[C@H](COP(=O)(O)OC[C@@]1(C#N)O[C@@H](c2ccc3c(N)ncnn23)[C@H](O)[C@@H]1O)Oc1cccc(C#N)c1 [Compound 51, ((2R,3S,4R,5S)-5-(4-aminopyrrolo[2,1-f][1,2,4]triazin-7-yl)-2-cyano-3,4-dihydroxytetrahydrofuran-2-yl)methyl ((R)-2-(3-cyanophenoxy)docosyl) hydrogen phosphate]	421 nM	56 nM	8330 nM	–
CCCCCCCCCCCCCCCCCOC[C@H](COP(=O)(O)OC[C@@]1(C#N)O[C@@H](c2ccc3c(N)ncnn23)[C@H](O)[C@@H]1O)OCc1cc(F)cc(C#N)c1 [Compound 53, ((2R,3S,4R,5S)-5-(4-aminopyrrolo[2,1-f][1,2,4]triazin-7-yl)-2-cyano-3,4-dihydroxytetrahydrofuran-2-yl)methyl ((R)-2-((3-cyano-5-fluorobenzyl)oxy)-3-(heptadecyloxy)propyl) hydrogen phosphate]	113 nM	22 nM	2820 nM	–
CCCCCCCCCCCCCCCCCCOC[C@H](COP(=O)(O)OC[C@@]1(C#N)O[C@@H](c2ccc3c(N)ncnn23)[C@H](O)[C@@H]1O)OCc1ccc(C#N)cc1OC [Compound 73, ((2R,3S,4R)-5-(4-aminopyrrolo[2,1-f][1,2,4]triazin-7-yl)-2-cyano-3,4-dihydroxytetrahydrofuran-2-yl)methyl ((R)-2-((4-cyano-2-methoxybenzyl)oxy)-3-(octadecyloxy)propyl) hydrogen phosphate]	195 nM	10 nM	3820 nM	–
CCCCCCCCCCCCCCOC[C@H](COP(=O)(O)OC[C@@]1(C#N)O[C@@H](c2ccc3c(N)ncnn23)[C@H](O)[C@@H]1O)OCc1ccc(C#N)cc1F [Compound 75, ((2R,3S,4R,5S)-5-(4-aminopyrrolo[2,1-f][1,2,4]triazin-7-yl)-2-cyano-3,4-dihydroxytetrahydrofuran-2-yl)methyl ((R)-2-((4-cyano-2-fluorobenzyl)oxy)-3-(tetradecyloxy)propyl) hydrogen phosphate]	385 nM	12 nM	4620 nM	–
CCCCCCCCCCCCCCCC[C@@H](COP(=O)(O)OC[C@@]1(C#N)O[C@@H](c2ccc3c(N)ncnn23)[C@H](O)[C@@H]1O)OCc1cc(F)cc(C#N)c1 [Compound 79, ((2R,3S,4R,5S)-5-(4-aminopyrrolo[2,1-f][1,2,4]triazin-7-yl)-2-cyano-3,4-dihydroxytetrahydrofuran-2-yl)methyl ((S)-2-((3-cyano-5-fluorobenzyl)oxy)octadecyl) hydrogen phosphate]	–	19 nM	2100 nM	6740 nM
CCCCCCCCCCCCCCC[C@H](COP(=O)(O)OC[C@@]1(C#N)O[C@@H](c2ccc3c(N)ncnn23)[C@H](O)[C@@H]1O)OCc1cc(F)cc(C#N)c1 [Compound 80, ((2R,3S,4R,5S)-5-(4-aminopyrrolo[2,1-f][1,2,4]triazin-7-yl)-2-cyano-3,4-dihydroxytetrahydrofuran-2-yl)methyl ((R)-2-((3-cyano-5-fluorobenzyl)oxy)heptadecyl) hydrogen phosphate]	–	36 nM	2170 nM	7080 nM
CCCCCCCCCCCCCCCCCC[C@H](COP(=O)(O)OC[C@@]1(C#N)O[C@@H](c2ccc3c(N)ncnn23)[C@H](O)[C@@H]1O)OCc1cc(Cl)cc(C#N)c1 [Compound 81, ((2R,3S,4R,5S)-5-(4-aminopyrrolo[2,1-f][1,2,4]triazin-7-yl)-2-cyano-3,4-dihydroxytetrahydrofuran-2-yl)methyl ((R)-2-((3-chloro-5-cyanobenzyl)oxy)icosyl) hydrogen phosphate]	–	83 nM	2480 nM	4520 nM
CCCCCCCCCCCCCCCCCCC[C@H](COP(=O)(O)OC[C@@]1(C#N)O[C@@H](c2ccc3c(N)ncnn23)[C@H](O)[C@@H]1O)OCc1cc(Cl)cc(C#N)c1 [Compound 82, ((2R,3S,4R,5S)-5-(4-aminopyrrolo[2,1-f][1,2,4]triazin-7-yl)-2-cyano-3,4-dihydroxytetrahydrofuran-2-yl)methyl ((R)-2-((3-chloro-5-cyanobenzyl)oxy)henicosyl) hydrogen phosphate]	–	147 nM	6120 nM	4030 nM
CCCCCCCCCCCCCCCCCC[C@H](COP(=O)(O)OC[C@@]1(C#N)O[C@@H](c2ccc3c(N)ncnn23)[C@H](O)[C@@H]1O)OCc1cc(F)cc(C#N)c1 [Compound 84, ((2R,3S,4R,5S)-5-(4-aminopyrrolo[2,1-f][1,2,4]triazin-7-yl)-2-cyano-3,4-dihydroxytetrahydrofuran-2-yl)methyl ((R)-2-((3-cyano-5-fluorobenzyl)oxy)icosyl) hydrogen phosphate]	–	9 nM	24500 nM	1820 nM
CCCCCCCCCCCCCCCCOC[C@@H](COP(=O)(O)OC[C@@]1(C#N)O[C@@H](c2ccc3c(N)ncnn23)[C@H](O)[C@@H]1O)OCc1cc(F)cc(C#N)c1 [Compound 88, ((2R,3S,4R,5S)-5-(4-aminopyrrolo[2,1-f][1,2,4]triazin-7-yl)-2-cyano-3,4-dihydroxytetrahydrofuran-2-yl)methyl ((S)-2-((3-cyano-5-fluorobenzyl)oxy)-3-(hexadecyloxy)propyl) hydrogen phosphate]	–	38 nM	7530 nM	2210 nM

Reference: patent US20250034182A1, “PHOSPHOLIPID COMPOUNDS AND METHODS OF MAKING AND USING THE SAME” (priority 2021, published 2025)
